From patent publication US8530466B2, “Use of 2,4-pyrimidinediamines for the treatment of atherosclerosis” (Rigel Pharmaceuticals, Inc., priority 2008, dated 2013)

Key:
Human mast cells (CHMC) [1] = experiment: Mast cell activation induced by FcγR cross-linking: degranulation (tryptase); assay type: cell-based; conditions: anti-IgG 1 μg/ml, 60-minute incubation
Method: Human mast cells were cultured and differentiated from CD38-negative progenitor cell as described in U.S. Patent Publication No. 2005-234049, incorporated herein by reference. For example, 65 μl of various concentrations of 6-(5-fluoro-2-(3,4,5-trimethoxyphenylamino) pyrimidin-4-ylamino)-2,2-dimethyl-2H-pyrido[3,2-b][1,4]oxazin-3(4H)-one (compound 1), prepared in MT (137 mM NaCl, 2.7 mM KCl, 1.8 mM CaCl2, 1.0 mM MgCl2, 5.6 mM Glucose, 20 mM Hepes (pH 7.4), 0.1% Bovine Serum Albumin, (Sigma A4503)) containing 2% MeOH and 1% DMSO, or control buffer were added to duplicate 96-well V-bottom plates. Pelleted and resuspended (in warm MT) CHMC cells (65 μl) were added to each 96-well plate, mixed and incubated for 1 hr at 37° C. […] After a 60-minute incubation at 37° C., cells and cell debris were pelleted by centrifugation at 1000 rpm for 10 min and tryptase and leukotriene C4 levels were measured.
To measure tryptase levels, 25 μl of supernatant from each well was transferred to a fresh 96-well black bottom plate, to which 100 μl of fresh tryptase substrate solution [(Z-Ala-Lys-Arg-AMC2TFA; Enzyme Systems Products, #AMC-246)] […] After 30 min incubation at room temperature, the optical density of the plates is measured at 355 nm/460 nm on a spectrophotometric plate reader. […]

Human mast cells (CHMC) [2] = experiment: Mast cell activation induced by FcγR cross-linking: LTC4 release (ELISA); assay type: cell-based; conditions: anti-IgG 1 μg/ml
Method: (§1) Human mast cells were cultured and differentiated from CD38-negative progenitor cell as described in U.S. Patent Publication No. 2005-234049, incorporated herein by reference. […] A80-105A3) final concentration 1 μg/ml, was added to the test wells. MT (25 μl) was added to control wells. After a 60-minute incubation at 37° C., cells and cell debris were pelleted by centrifugation at 1000 rpm for 10 min and tryptase and leukotriene C4 levels were measured. Leukotriene C4 (LTC4) levels were quantified using an ELISA kit on appropriately diluted supernatant samples following the supplier's instructions (Cayman Chemical Co., Cat No. 520211). Inhibition of release and/or synthesis of lipid mediators was assessed by measuring the release of LTC4 and inhibition of release and/or synthesis of cytokines was monitored by quantifying TNFα, IL-8, GM-CSF, IL-10 and IL-13. Cytokine (TNFα, IL-8, GM-CSF, IL-10, IL-13) production was measured 6-8 hrs post-IgG crosslinking. Leukotriene and cytokine levels were quantified using the following commercial ELISA kits: LTC4 (Cayman Chemical #520211), TNFα (Biosource #KHC3011), GM-CSF (Biosource #KHC0901), IL-10 (Biosource #KHC0122), and IL-13 (Biosource #KHC0132).

Human mast cells (CHMC) [3] = experiment: Mast cell activation induced by FcγR cross-linking: cytokine production (ELISA); assay type: cell-based; conditions: 6-8 hrs post-IgG crosslinking
Method: as §1, with “measured.” for “measured. Leukotriene C4 (LTC4) levels were quantified using an ELISA kit on appropriately diluted supernatant samples following the supplier's instructions (Cayman Chemical Co., Cat No. 520211).”

Platelets in PRP = experiment: CD62P surface expression by stimulated platelets (flow cytometry); assay type: cell-based, Human; conditions: 15 min at 37° C.
Method: Human peripheral blood, from healthy volunteers who had not taken any medication for at least 7 days, was drawn into Vacutainer-ACD tubes (Acid citrate dextrose (ACD) Solution Tubes, VWR Cat. No. VT4606). Platelet-rich plasma (PRP) and platelet-poor plasma (PPP) were prepared by differential centrifugation (200 g and >2500 g, respectively, 20 min, RT). Platelets in PRP were incubated for 10 min at 37° C. with test article-DMSO solutions that had been previously diluted in MT buffer (137 mM NaCl, 2.7 mM KCl, 1.8 mM CaCl2, 1.0 mM MgCl2, 5.6 mM glucose, 20 mM Hepes, 0.1% BSA; pH 7.4). The test articles included dimethyl Sulfoxide (DMSO) (Sigma-Aldrich, Cat No. D2650), wortmannin Penicillium funiculosum (Sigma-Aldrich, Cat No. W1628), and 6-(5-fluoro-2-(3,4,5-trimethoxyphenylamino)pyrimidin-4-ylamino)-2,2-dimethyl-2H-pyrido[3,2-b][1,4]oxazin-3(4H)-one (compound 1).
Cells were stimulated with collagen (Chronolog Corp. Cat. No. 385) at 20 μg/mL, adenosine 5′-diphosphate (ADP) (Sigma-Aldrich Cat. No. A2754) at 33 μM, or phorbol 12-Myristate 13-Acetate (PMA) (Sigma-Aldrich Cat. No. P8139) at 33 ng/mL, for 15 min at 37° C., then incubated with staining antibody (anti-CD62P PE) at RT in the dark for 20 min, and fixed with paraformaldehyde (Cytofix fixation buffer) in the dark for 30 min at RT. Finally, cells were washed with PBS containing 2% fetal bovine serum and stored at 4° C. in the dark prior to flow cytometry. Measurements were performed using a FACScalibur flow cytometer (BD Biosciences, San Jose, Calif., USA). CD62P expression was expressed as geometric mean fluorescence on the vertical axis.

`COc1cc(Nc2ncc(F)c(Nc3ccc4c(n3)NC(=O)C(C)(C)O4)n2)cc(OC)c1OC` [Compound 1, 6-(5-fluoro-2-(3,4,5-trimethoxyphenylamino)pyrimidin-4-ylamino)-2,2-dimethyl-2H-pyrido[3,2-b][1,4]oxazin-3(4H)-one] showed an EC50 (Human mast cells (CHMC) [1]; Homo sapiens, Mast cell, 1 h) of 0.053 µM, an EC50 (Human mast cells (CHMC) [1]; listed as lot B) of 0.076 µM and an EC50 (Human mast cells (CHMC) [2]; Homo sapiens, Mast cell) of 0.036 µM. The EC50 (Human mast cells (CHMC) [2]; listed as lot B) was 0.047 µM, the EC50 (Human mast cells (CHMC) [3]; listed as lot B, read-out: EC50 GMCSF) was 0.067 µM and the EC50 (Human mast cells (CHMC) [3]; listed as lot B, read-out: EC50 IL-8) was 0.062 µM. It also gave an EC50 (Human mast cells (CHMC) [3]; listed as lot B, read-out: EC50 IL-10) of 0.148 µM, an EC50 (Human mast cells (CHMC) [3]; listed as lot B, read-out: EC50 IL-13) of 0.148 µM and an EC50 (Human mast cells (CHMC) [3]; listed as lot B, read-out: EC50 TNFα) of 0.12 µM. The EC50 (Human mast cells (CHMC) [3]; Homo sapiens, Mast cell, read-out: EC50 GMCSF) was 0.046 µM, the EC50 (Human mast cells (CHMC) [3]; Homo sapiens, Mast cell, read-out: EC50 IL-8) was 0.045 µM and the EC50 (Human mast cells (CHMC) [3]; Homo sapiens, Mast cell, read-out: EC50 IL-10) was 0.125 µM. The EC50 (Human mast cells (CHMC) [3]; Homo sapiens, Mast cell, read-out: EC50 IL-13) was 0.09 µM, the “CD62P surface upregulation in platelets induced by ADP” value (Platelets in PRP; ADP 33 μM) was “did not inhibit” and the “CD62P surface upregulation in platelets induced by PMA” value (Platelets in PRP; PMA 33 ng/mL) was “did not inhibit”. The “collagen receptor mediated platelet activation (CD62P surface expression)” value (Platelets in PRP; collagen 20 μg/mL) was “inhibited”.
